Consider 26 molecules from patent US10093623B2, “Cyclic amides as MetAP-2 inhibitors” (MERCK PATENT GmbH, priority 2012, dated 2018).

The term IC50 denotes the concentration that gives 50% inhibition.

This assay has as its target MetAP-2 (Homo sapiens, UniProt P50579). The experiment in a line: MetAP-2 activity measurement (coupled enzymatic reactions, Met-Arg-Ser substrate, dianisidine detection at 450 nm). Conditions: Inhibition of MetAP-2; read-out: IC50 enzyme. The assay is classed as biochemical. Here is the method: MetAP-2 Activity Measurement
The MetAP-2 activity is determined by coupling enzymatic reactions. The tripeptide Met-Arg-Ser (MAS) is employed as substrate. The methionine liberated is firstly converted into Metox and H2O2 by L-aminooxidase (AAO). In the second step, the peroxidase (POD) with the aid of the H2O2 catalyses the oxidation of the leukodye dianisidine to dianisidineox, the increase of which is detected photometrically at 450 nm.
MetAP-2 activity can be recorded continuously as kinetics. The reaction scheme illustrates that one mol of dianisidineox is formed per mol of methionene. The MetAP-2 enzyme activity can therefore be calculated directly as A absorption per time unit. Qualification of the MetAP-2 activity (mol of Met/time unit) is possible with the aid of the dianisidineox extinction coefficient.
The change in extinction per time unit is depicted graphically and a slope calculation is carried out in the visually linear region of the reaction.

MetAP-2, sequence (P50579 whole entry, species assumed): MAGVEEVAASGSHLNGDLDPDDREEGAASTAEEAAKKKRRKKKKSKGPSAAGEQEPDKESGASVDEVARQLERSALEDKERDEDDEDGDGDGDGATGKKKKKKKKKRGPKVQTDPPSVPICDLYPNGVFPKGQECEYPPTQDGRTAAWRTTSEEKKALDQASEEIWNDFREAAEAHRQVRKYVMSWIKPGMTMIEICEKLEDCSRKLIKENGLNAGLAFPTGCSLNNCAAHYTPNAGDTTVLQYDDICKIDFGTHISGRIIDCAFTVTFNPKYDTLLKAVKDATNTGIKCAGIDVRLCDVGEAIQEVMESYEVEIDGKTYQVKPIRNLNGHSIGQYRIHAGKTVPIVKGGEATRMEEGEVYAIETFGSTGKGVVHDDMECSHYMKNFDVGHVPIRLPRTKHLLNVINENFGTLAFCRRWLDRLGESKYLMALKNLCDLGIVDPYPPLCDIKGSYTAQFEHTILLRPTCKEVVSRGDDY

As for `CN(CCO)C(=O)c1cccc(N2CC[C@](O)(C(=O)NCc3cc(F)cc(Cl)c3)C2=O)c1` [A93, N-(3-Chloro-5-fluorobenzyl)-(S)-3-hydroxy-1-{3-[(2-hydroxy-ethyl)methylcarbamoyl]phenyl}-2-oxopyrrolidine-3-carboxamide], the IC50 fell in the range of 1000 to 10000 nM.

For the molecule `O=C(NCCCO)c1cccc(N2CC[C@](O)(C(=O)NCc3cc(F)cc(Cl)c3)C2=O)c1` [A94, N-(3-Chloro-5-fluorobenzyl)-(S)-3-hydroxy-1-[3-(3-hydroxy-propylcarbamoyl)phenyl]-2-oxo-pyrrolidine-3-carboxamide], the 50% inhibitory concentration (IC50) lay within 10 to 1000 nM.

On to `O=C(c1cccc(N2CC[C@](O)(C(=O)NCc3cc(F)cc(Cl)c3)C2=O)c1)N1CCCCC1` [A95, N-(3-Chloro-5-fluorobenzyl)-(S)-3-hydroxy-2-oxo-1-[3-(piperidin-1-carbonyl)phenyl]pyrrolidine-3-carboxamide], for which the IC50 was in the range of 10 to 1000 nM.

On to `O=C1NCCc2cc(N3CC[C@](O)(C(=O)NCc4cc(F)cc(Cl)c4)C3=O)ccc21` [A96, N-(3-Chloro-5-fluorobenzyl)-(S)-3-hydroxy-2-oxo-1-(1-oxo-1,2,3,4-tetrahydroisoquinolin-6-yl)pyrrolidine-3-carboxamide], for which the IC50 is 10 to 1000 nM.

Turning to `N#Cc1ccc(N2CC[C@](O)(C(=O)NCc3cc(F)cc(Cl)c3)C2=O)cn1` [A97, N-(3-Chloro-5-fluorobenzyl)-(S)-1-(6-cyanopyridin-3-yl)-3-hydroxy-2-oxopyrrolidine-3-carboxamide], the IC50 lay within 10 to 1000 nM.

Turning to `N#Cc1cncc(N2CC[C@@](O)(C(=O)NCc3cc(F)cc(Cl)c3)C2=O)c1` [A98, N-(3-Chloro-5-fluorobenzyl)-(R)-1-(5-cyanopyridin-3-yl)-3-hydroxy-2-oxopyrrolidine-3-carboxamide], the IC50 was greater than 10000 nM.

For the molecule `O=C(NCc1cc(F)cc(Cl)c1)[C@@]1(O)CCN(c2ccc(C(F)(F)F)nc2)C1=O` [A99, N-(3-Chloro-5-fluorobenzyl)-(S)-3-hydroxy-2-oxo-1-(6-trifluoromethylpyridin-3-yl)-pyrrolidine-3-carboxamide], the half-inhibitory concentration (IC50) lay in the range of 10 to 1000 nM.

Regarding `COC(=O)c1cc(N2CCC(O)(C(=O)NCc3cc(F)cc(Cl)c3)C2=O)cnc1C` (centres unmarked) [A100, Methyl 5-[3-(3-chloro-5-fluorobenzylcarbamoyl)-3-hydroxy-2-oxopyrrolidin-1-yl]-2-methylnicotinate], the IC50 fell in the range of 10 to 1000 nM.

As for `CC1(C)CN(c2ccccc2)C(=O)[C@@]1(O)C(=O)NCc1cc(F)cc(Cl)c1` [A101, N-(3-Chloro-5-fluorobenzyl)-(S)-3-hydroxy-4,4-dimethyl-2-oxo-1-phenylpyrrolidine-3-carboxamide], the 50% inhibitory concentration (IC50) is greater than 10000 nM.

Regarding `CN(CCO)C(=O)c1cccc(N2CC[C@@](O)(C(=O)NCc3cc(F)cc(Cl)c3)C2=O)c1` [A102, N-(3-Chloro-5-fluorobenzyl)-(R)-3-hydroxy-1-{3-[(2-hydroxy-ethyl)methylcarbamoyl]phenyl}-2-oxopyrrolidine-3-carboxamide], the IC50 is 1000 to 10000 nM.

Take `O=C(NCCCO)c1cccc(N2CC[C@@](O)(C(=O)NCc3cc(F)cc(Cl)c3)C2=O)c1` [A103, N-(3-Chloro-5-fluorobenzyl)-(R)-3-hydroxy-1-[3-(3-hydroxy-propylcarbamoyl)phenyl]-2-oxo-pyrrolidine-3-carboxamide]: the IC50 was in the range of 1000 to 10000 nM.

For the molecule `O=C(c1cccc(N2CC[C@@](O)(C(=O)NCc3cc(F)cc(Cl)c3)C2=O)c1)N1CCCCC1` [A104, N-(3-Chloro-5-fluorobenzyl)-(R)-3-hydroxy-2-oxo-1-[3-(piperidin-1-carbonyl)phenyl]pyrrolidine-3-carboxamide], the IC50 is greater than 10000 nM.

`O=C1NCCc2cc(N3CC[C@@](O)(C(=O)NCc4cc(F)cc(Cl)c4)C3=O)ccc21` [A105, N-(3-Chloro-5-fluorobenzyl)-(R)-3-hydroxy-2-oxo-1-(1-oxo-1,2,3,4-tetrahydroisoquinolin-6-yl)pyrrolidine-3-carboxamide]: the IC50 was greater than 10000 nM.

For `N#Cc1ccc(N2CC[C@@](O)(C(=O)NCc3cc(F)cc(Cl)c3)C2=O)cn1` [A106, N-(3-Chloro-5-fluorobenzyl)-(R)-1-(6-cyanopyridin-3-yl)-3-hydroxy-2-oxopyrrolidine-3-carboxamide], the IC50 was greater than 10000 nM.

For the molecule `N#Cc1cncc(N2CC[C@](O)(C(=O)NCc3cc(F)cc(Cl)c3)C2=O)c1` [A107, N-(3-Chloro-5-fluorobenzyl)-(S)-1-(5-cyanopyridin-3-yl)-3-hydroxy-2-oxopyrrolidine-3-carboxamide], the IC50 is 1000 to 10000 nM.

For the molecule `O=C(NCc1cc(F)cc(Cl)c1)[C@]1(O)CCN(c2ccc(C(F)(F)F)nc2)C1=O` [A108, N-(3-Chloro-5-fluorobenzyl)-(R)-3-hydroxy-2-oxo-1-(6-trifluoromethylpyridin-3-yl)-pyrrolidine-3-carboxamide], the IC50 was greater than 10000 nM.

`CC1(C)CN(c2ccccc2)C(=O)[C@]1(O)C(=O)NCc1cc(F)cc(Cl)c1` [A109, N-(3-Chloro-5-fluorobenzyl)-(R)-3-hydroxy-4,4-dimethyl-2-oxo-1-phenylpyrrolidine-3-carboxamide]: the IC50 is greater than 10000 nM.

`C=C(Cc1ccccc1)C(=O)[C@@]1(O)CCN(c2ccccc2)C1=O` [A110, (S)-3-(2-Benzylacryloyl)-3-hydroxy-1-phenylpyrrolidin-2-one]: the half-inhibitory concentration (IC50) was greater than 10000 nM.

For the molecule `C=C(Cc1ccccc1)C(=O)[C@]1(O)CCN(c2ccccc2)C1=O` [A111, (R)-3-(2-Benzylacryloyl)-3-hydroxy-1-phenylpyrrolidin-2-one], the IC50 is greater than 10000 nM.

With `O=C(NCc1cc(F)cc(Cl)c1)C1(O)CCN(c2ccc3c(c2)c(C(F)(F)F)cn3CO)C1=O` (centres unmarked) [A112, N-(3-Chloro-5-fluorobenzyl)-3-hydroxy-1-(1-hydroxymethyl-3-trifluoromethyl-1H-indol-5-yl)-2-oxopyrrolidine-3-carboxamide], the IC50 is 10 to 1000 nM.

For the molecule `O=C(NCc1cc(F)cc(Cl)c1)C1(O)C(=O)N(c2ccccc2)CC12COC2` (centres unmarked) [A113, N-(3-Chloro-5-fluorobenzyl)-8-hydroxy-7-oxo-6-phenyl-2-oxa-6-azaspiro[3.4]octane-8-carboxamide], the IC50 was greater than 10000 nM.

Regarding `O=C1NCCc2ccc(N3CCC(O)(C(=O)NCc4cc(F)cc(Cl)c4)C3=O)cc21` (centres unmarked) [A115, N-(3-Chloro-5-fluorobenzyl)-3-hydroxy-2-oxo-1-(1-oxo-1,2,3,4-tetrahydroisoquinolin-7-yl)-pyrrolidine-3-carboxamide], the IC50 fell in the range of 10 to 1000 nM.

Consider `CNc1ccc(N2CCC(O)(C(=O)NCc3cc(F)cc(Cl)c3)C2=O)cn1` (centres unmarked) [A116, N-(3-Chloro-5-fluorobenzyl)-3-hydroxy-1-(6-methylamino-pyridin-3-yl)-2-oxopyrrolidine-3-carboxamide], for which the concentration for half-maximal inhibition (IC50) is 10 to 1000 nM.

Regarding `Cc1cncc(N2CCC(O)(C(=O)NCc3cc(F)cc(Cl)c3)C2=O)c1` (centres unmarked) [A117, N-(3-Chloro-5-fluorobenzyl)-3-hydroxy-1-(5-methylpyridin-3-yl)-2-oxopyrrolidine-3-carboxamide], the IC50 was 10 to 1000 nM.

For `O=C(NCc1cc(F)cc(Cl)c1)C1(O)CCN(c2cnc3c(c2)OCCN3)C1=O` (centres unmarked) [A118, N-(3-Chloro-5-fluorobenzyl)-1-(3,4-Dihydro-2H-pyrido[3,2-b]-1,4-oxazin-7-yl)-3-hydroxy-2-oxopyrrolidine-3-carboxamide], the IC50 lay in the range of 10 to 1000 nM.

As to `CC1CC(O)(C(=O)NCc2cc(F)cc(Cl)c2)C(=O)N1c1ccccc1` (centres unmarked) [A119, N-(3-chloro-5-fluorobenzyl)-3-hydroxy-5-methyl-2-oxo-1-phenylpyrrolidine-3-carboxamide], the IC50 fell in the range of 1000 to 10000 nM.
